System: human lung cancer NCI-H460
Assay: Pharmacodynamics in subcutaneous xenograft model of human lung cancer NCI-H460 (tumor volume, TGI)
Assay type: in vivo, BALB/c nude mice
Conditions: Group 7: AST-3424 2.5 mg/kg QW×3 i.v.
Protocol: Measures of pharmacodynamics of AST-3424 monotherapy and combination therapy with Celecoxib were performed in a subcutaneous xenograft model of human lung cancer NCI-H460 established by using female BALB/c nude mice.
After the inoculation of tumor cell, tumor growth was routinely monitored, and tumor volume and mouse weight were measured. Evaluation of therapeutic efficiency was based on the relative tumor growth inhibition TGI (%). The specific results are shown in Table 3 and FIG. 3, and the Pharmacodynamics analysis data on Day 30 after inoculation (at the end of drug administration) are particularly given in Table 4.

C[C@H](OP(=O)(N1CC1)N1CC1)c1ccc([N+](=O)[O-])c(Oc2cccc(C(=O)N(C)C)c2)c1 [AST-3424]
Tumor volume (x ± S) (Day 9 after cell inoculation): 144.01 ± 11.36 mm^3
Tumor volume (x ± S) (Day 12 after cell inoculation): 164.28 ± 17.97 mm^3
Tumor volume (x ± S) (Day 16 after cell inoculation): 166.22 ± 18.81 mm^3
Tumor volume (x ± S) (Day 19 after cell inoculation): 209.80 ± 41.43 mm^3
Tumor volume (x ± S) (Day 23 after cell inoculation): 208.60 ± 43.27 mm^3
Tumor volume (x ± S) (Day 26 after cell inoculation): 291.82 ± 67.06 mm^3
Tumor volume (x ± S) (Day 30 after cell inoculation): 327.47 ± 85.10 mm^3
Relative tumor volume (x ± S) (Day 30 after inoculation): 2.19 ± 0.41
T/C (%) (Day 30 after inoculation): 39.25%
TGI (%) (Day 30 after inoculation, 2.5 mg/kg): 60.75%
Tumor volume (x ± S) (Day 30 after inoculation, in mm³): 327.47 ± 85.10
Tumor volume (x ± S) (Day 33 after cell inoculation): 348.83 ± 90.34 mm^3
Tumor volume (x ± S) (Day 37 after cell inoculation): 439.52 ± 142.78 mm^3
